Assay results: PMC11091888, “Evaluation of Fusobacterium nucleatum Enoyl-ACP Reductase (FabK) as a Narrow-Spectrum Drug Target” (ACS Infectious Diseases, 2024)
Converted amounts (≈) assume the structure as drawn. “Also recorded” adds a separate entry of the source. Read-outs that look alike come from different tables or passages of the source.

Tests used:
F. nucleatum 23726 [1] = assay: MIC against F. nucleatum 23726; format: cell-based, Fusobacterium nucleatum; settings: Fusobacterium nucleatum, 23726, F. nucleatum 23726 wild-type; three biological replicates; read-out: MIC Fn 23726
Method: (§1) Compounds were twofold serially diluted (100–0.2 μg/mL) across a 96-well plate in 100 μL of media used for the specific organism (Table S4). For anaerobes, plates were incubated anaerobically at 37 °C for 1 h and then inoculated with approximately 10^5 to 10^6 CFU/well. Plates were incubated at 37 °C for up to 48 h, and MICs were read by visual inspection.

FnFabK = FnFabK (Fusobacterium nucleatum subsp. nucleatum, UniProt Q8RGV3); assay: biochemical
Sequence of FnFabK (Q8RGV3 entry or part of it): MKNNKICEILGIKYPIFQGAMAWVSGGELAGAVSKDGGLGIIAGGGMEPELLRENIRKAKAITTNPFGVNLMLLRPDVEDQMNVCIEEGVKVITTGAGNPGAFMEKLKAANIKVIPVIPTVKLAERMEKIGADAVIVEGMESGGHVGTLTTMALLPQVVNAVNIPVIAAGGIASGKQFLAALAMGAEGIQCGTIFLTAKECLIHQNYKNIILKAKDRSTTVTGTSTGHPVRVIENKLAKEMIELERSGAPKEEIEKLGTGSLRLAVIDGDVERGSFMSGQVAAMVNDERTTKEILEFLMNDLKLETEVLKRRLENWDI
Method: Incubation lasted for a total of 10 min before the addition of crotonyl-CoA substrate, and the reaction was initiated by the addition of NADH for a final assay volume of 100 μL. The oxidation of NADH to NAD+ was measured by tracking fluorescence (340 nm/460 nm) with a Biotek Synergy H1 microplate reader in 15 s intervals for a total of 10 min to monitor the rate of reaction. The reaction was conducted in Greiner Bio-One 384-well μClear Bottom Polystyrene Microplates. […] Measurements were conducted in triplicate, and IC50’s were calculated via GraphPad Prism 9.1.2 using four-parameter logistic (Hill) curve analysis using equation Y = bottom + (top – bottom)/[1 + 10 (Log IC50 – X) × Hill Slope], where X is the logarithm of the dose and Y is the response. The assay concentrations of the cofactor, NADH, and substrate, crotonyl-CoA, were also determined via GraphPad Prism 9.1.2 using the substrate inhibition model to determine Km(app).

[2] = system: F. nucleatum 23726 complementation strains; assay: MIC against F. nucleatum 23726 carrying FabK alanine-132 or threonine-132 under the wild-type fabK promoter; format: cell-based; settings: Fusobacterium nucleatum
Method: The transformation of F. nucleatum 23726 was performed via electroporation as previously described,[41] except that Columbia broth was used. (i) Antisense vector: F. nucleatum gene silencing vector, pHFK2, was developed by inserting the ATc inducible paired-termini antisense sequences from the clostridial vector pMSPT into pCWU6, a F. nucleatum vector.[56] pCWU6 was amplified by PCR (CloneAmp polymerase) and recombined with the BamHI and KpnI fragments of pMSPT containing the Tet promoter and paired-termini sequences.[26] Antisense nucleotides targeting either 50 bp upstream and downstream of the fabK start codon (FabKAS1) or 25 bp upstream and 75 bp downstream (FabKAS2) were cloned into SphI and XhoI restriction sites of pHFK2. (ii) Complementation vectors: these were generated by PCR amplifying the fabK promoter and gene and introducing KpnI and HindIII restriction sites at 5′ and 3′ ends, respectively. Purified PCR amplicons were inserted into the KpnI and HindIII sites of pCWU6. (iii) Overexpression vectors: the corresponding gene, fabK or fabX, was amplified via PCR, introducing HindIII or SacI restriction sites to the 5′ end, respectively. BamHI restriction sites were introduced to the 3′ end of both. Purified PCR amplicons were inserted into the respective restriction sites of pHFK2. (iv) Allelic exchange vector: vector, pCWU8-FabK, was generated using a previously described protocol,[41],[56] whereby 1-kb regions upstream and downstream of fabK were cloned into the suicide vector pCWU8 using a Gibson Assembly Cloning Kit (New England Biolabs). The recombinant vector was transformed into strain F. nucleatum 23726ΔgalK, and successful integrants were collected that were resistant to thiamphenicol (5 μg/mL). […]
Compounds were twofold serially diluted (100–0.2 μg/mL) across a 96-well plate in 100 μL of media used for the specific organism (Table S4). […] Plates were incubated at 37 °C for up to 48 h, and MICs were read by visual inspection.

Actinomyces F0386 = assay: MIC, digestive tract panel; format: cell-based; settings: Type I FAS
Method: as §1

Clostridium sp. MSTE9 = assay: MIC, digestive tract panel; format: cell-based; settings: ENR FabK
Method: as §1

F. necrophorum 25286 = assay: MIC, digestive tract panel; format: cell-based; settings: Fusobacterium necrophorum, ENR FabK
Method: as §1

F. nucleatum 25586 = assay: MIC, digestive tract panel; format: cell-based; settings: Fusobacterium nucleatum, ENR FabK
Method: as §1

F. periodonticum 33693 = assay: MIC, digestive tract panel; format: cell-based; settings: ENR FabK
Method: as §1

F. vincentii 49256 = assay: MIC, digestive tract panel; format: cell-based; settings: ENR FabK
Method: as §1

P. gingivalis 33277 = assay: MIC, digestive tract panel; format: cell-based; settings: Porphyromonas gingivalis, ENR FabK
Method: as §1

P. gingivalis F0566 = assay: MIC, digestive tract panel; format: cell-based; settings: Porphyromonas gingivalis, ENR FabK
Method: as §1

P. gingivalis F0569 = assay: MIC, digestive tract panel; format: cell-based; settings: Porphyromonas gingivalis
Method: as §1

Prevotella denticola = assay: MIC, digestive tract panel; format: cell-based; settings: ENR FabI
Method: as §1

[3] = system: Propionibacterium acidifaciens; assay: MIC, digestive tract panel; format: cell-based; settings: ENR FabI
Method: as §1

Streptococcus downei = assay: MIC, digestive tract panel; format: cell-based; settings: ENR FabK
Method: as §1

Streptococcus mitis = assay: MIC, digestive tract panel; format: cell-based; settings: ENR FabK
Method: as §1

Streptococcus pyogenes = assay: MIC, digestive tract panel; format: cell-based; settings: ENR FabK
Method: as §1

Streptococcus sanguinis = assay: MIC, digestive tract panel; format: cell-based; settings: ENR FabK
Method: as §1

Streptococcus sp. SPAR10 = assay: MIC, digestive tract panel; format: cell-based; settings: ENR FabK
Method: as §1

Streptococci = assay: MIC, all tested Streptococci; format: cell-based; settings: text summary of Table 4; read-out: MICs against all tested Streptococci
Method: as §1

F. nucleatum 23726 [4] = assay: Growth in FAS-II inhibitor with or without exogenous fatty acids; format: cell-based, Fusobacterium nucleatum; settings: fatty acid mixture of Table S2
Method: To plates containing twofold serial dilutions of compounds, exponential phase cultures were added to a final OD600nm of 0.1. Plates containing F. nucleatum in Columbia broth were incubated at 37 °C inside of a Tecan Infinite 200 Pro, which was inside an anaerobic chamber; growth kinetics for Streptococcus spp. in brain heart infusion broth were done aerobically in the same Tecan instrument.

Compound: CS(=O)(=O)c1ccc2nc(NC(=O)NCc3nc(-c4ccc(Br)cc4)c[nH]3)sc2c1 [Compound 681, 1-((4-(4-bromophenyl)-1H-imidazole-2-yl)methyl)-3-(6-(methylsulfonyl)benzo[d]thiazol-2-yl)urea]
- MIC (F. nucleatum 23726 [1]): 0.4 µg/mL (≈ 0.79 µM)
- IC50 (FnFabK; IC50 against FnFabK, equivalent concentration, conversion of the μM value): 1.97 µM
- Hill coefficient (FnFabK inhibition) (FnFabK; four-parameter logistic fit): 1.01
- MIC ([2]; read-out: MIC, empty vector control): 0.6 µg/mL
- MIC ([2]; read-out: MIC, threonine-132 FabK mutant): 2.5 to 5 µg/mL
- MIC ([2]; read-out: MIC, wild-type FabK (alanine-132)): 1.3 µg/mL
- MIC (Actinomyces F0386): > 100 µg/mL
- MIC (Clostridium sp. MSTE9): > 100 µg/mL
- MIC (F. necrophorum 25286): 6.3 to 12.5 µg/mL (≈ 12.4 to 24.7 µM)
- MIC (F. nucleatum 25586): 0.8 µg/mL (≈ 1.58 µM)
- MIC (F. periodonticum 33693): 0.8 µg/mL (≈ 1.58 µM)
- MIC (F. vincentii 49256): 1.6 µg/mL (≈ 3.16 µM)
- MIC (P. gingivalis 33277): > 100 µg/mL
- MIC (P. gingivalis F0566): 3.1 µg/mL (≈ 6.12 µM)
- MIC (P. gingivalis F0569): > 100 µg/mL
- MIC (Prevotella denticola): > 100 µg/mL
- MIC [3]: 6.3 µg/mL (≈ 12.4 µM)
- MIC (Streptococcus downei): < 1.6 µg/mL
- MIC (Streptococcus mitis): < 1.6 µg/mL
- MIC (Streptococcus pyogenes): < 1.6 µg/mL
- MIC (Streptococcus sanguinis): < 1.6 µg/mL
- MIC (Streptococcus sp. SPAR10): < 1.6 µg/mL
- MIC (Streptococci): < 1.6 µg/mL
- Effect of exogenous fatty acids on growth inhibition of F. nucleatum (F. nucleatum 23726 [4]): did not attenuate; also recorded: did not rescue
